Measured values as given in BindingDB's records for doi:10.1021/jm701437d (The Institute of Cancer Research, 2008).

Molecular target: Glycogen synthase kinase-3 beta (Homo sapiens, UniProt P49841)
Assay: Inhibition of GSK3-beta in human PC3M cells by ELISA

Sequence of Glycogen synthase kinase-3 beta (P49841 whole entry): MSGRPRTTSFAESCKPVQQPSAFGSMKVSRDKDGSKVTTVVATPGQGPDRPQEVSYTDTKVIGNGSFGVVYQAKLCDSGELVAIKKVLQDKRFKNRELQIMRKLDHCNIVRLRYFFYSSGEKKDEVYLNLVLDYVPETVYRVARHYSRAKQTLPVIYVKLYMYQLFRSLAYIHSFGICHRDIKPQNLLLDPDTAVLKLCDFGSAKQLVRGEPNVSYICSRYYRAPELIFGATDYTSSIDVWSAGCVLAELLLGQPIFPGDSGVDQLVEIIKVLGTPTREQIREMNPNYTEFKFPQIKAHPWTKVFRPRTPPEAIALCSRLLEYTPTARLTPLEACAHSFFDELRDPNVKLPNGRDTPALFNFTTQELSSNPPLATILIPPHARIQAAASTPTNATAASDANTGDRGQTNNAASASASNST

| IC50 | SMILES |
| --- | --- |
| 8100 nM | O=c1cc(N2CCOCC2)oc2c(-c3ccccc3)cccc12 |
| 590 nM | NC(c1ccc(Cl)cc1)C1CCN(c2ccnc3[nH]ccc23)CC1 (centres undefined) |
| 1400 nM | NCC1(Cc2ccc(Cl)cc2)CCN(c2ncnc3[nH]ccc23)CC1 |
| 590 nM | NCC1(c2ccc(Cl)cc2)CCN(c2ncnc3[nH]ccc23)CC1 |

Molecular target: not listed separately
Assay: Inhibition of GSK3-beta in human PC3M cells by ELISA

| SMILES | IC50 |
| --- | --- |
| NC(c1ccccc1)C1CCN(c2ncnc3[nH]ccc23)CC1 (centres undefined) | > 30000 nM |
| NC1CCN(c2ncnc3n[nH]cc23)CC1 | > 30000 nM |
| NCC1CCN(c2ncnc3n[nH]cc23)CC1 | > 30000 nM |

The remaining lines, values ahead:

| IC50 | SMILES |
| --- | --- |
| 15000 nM | NC1CCN(c2ncnc3[nH]ccc23)CC1 |
| 11000 nM | NCC1CCN(c2ncnc3[nH]ccc23)CC1 |
| 2000 nM | NC(c1ccc(Cl)cc1)C1CCN(c2ccnc3[nH]ccc23)CC1 (centres undefined) |
| 1700 nM | NCC1(Cc2ccc(Cl)cc2)CCN(c2ncnc3nc[nH]c23)CC1 |
| 1400 nM | NCC1(c2ccc(Cl)cc2)CCN(c2ccnc3[nH]ccc23)CC1 |
| 1300 nM | NCC1(c2ccc(Cl)cc2)CCN(c2ncnc3nc[nH]c23)CC1 |
| 600 nM | NC1(c2ccc(Cl)cc2)CCN(c2ncnc3[nH]ccc23)CC1 |
